Assay results: US7312024B2, “Materials and methods to inhibit Hodgkin and Reed Sternberg cell growth” (Amgen Canada Inc., priority 1999, dated 2007)

Tested on: HDLM2 cells
Test: [3H]-thymidine incorporation proliferation of HDLM2 cells after neutralization of IL-13
Type: cell-based, human
Conditions: IL-13 0.5-200 ng/ml
Method: To investigate the effects of IL-13 and IL-5 on the proliferation of H/RS cells, L428, KMH2 and HDLM2 cells were incubated with either (i) medium alone, (ii) medium containing neutralizing antibodies to IL-13 or IL-5, or (ii) isotype matched control antibodies. Proliferation was measured by determining [^3H]-thyridine incorporation at 24, 48, or 72 hours after treatment.
HD-derived L428, KMH2, and HDLM2 cells and LCL control cells (2×10^4/well) were cultured in 96-well flat-bottom plates for 24 hours, 48 hours, or 72 hours in the presence of anti-IL-13, anti-IL-5, or isotype control antibodies at 5, 10, 20, 30, 50, 100 or 150 μg/ml. Cells were treated either with IL-13 (0.5, 1, 5, 10, 50, 100 and 200 ng/ml), or with these same doses of IL-13 combined with 20 μg/ml anti-IL-13 monoclonal antibody. Tritium-labeled thymidine (1 μCi/well) was added to each well and incubation continued for eight hours. Cells were harvested on filters and incorporation of […] into cellular DNA was measured as previously described [Shahinian, et al., Science 261:609-12 (1993)]. The viability of cultured cell lines after treatment with anti-IL-13 neutralizing antibodies was examined by 7-aminoactinomycin D (7-AAD) staining.

Substance: IL-13: exogenous IL-13 cytokine added to cells
- proliferation with exogenous IL-13 alone versus untreated cells: did not result in an increase in proliferation
